Measurements reported in patent publication US20200347153A1, “METHODS FOR FORMING INCLUSION COMPLEXES WITH HYDROPHILIC BETA-CYCLODEXTRIN DERIVATIVES AND COMPOSITIONS THEREOF” (priority 2019, published 2020).
Entries after “also recorded” stand apart in the source; their conditions may differ.

Assays:
[1] = Stability studies (shelf life, visible changes); format: physicochemical; settings: visible changes; for Stability of Actives at 40° C.: 40° C. accelerated stability
Description: The effects of HPBCD on the shelf life stability of each active agent is studied at pre-determined temperatures for 11 weeks. Real time stability is observed at −17° C., 5° C. and 25° C., and accelerated stability is observed at 40° C. For accelerated stability, one day at 40° C. is equivalent to one week, thus the data represents 77 weeks. […] The vials are then placed in a temperature-controlled oven or refrigerator/freezer. The compounds are checked daily and any visible changes are noted.

[2] = Solubility in water (statements); format: physicochemical
[3] = Skin permeation and delivery, Franz-type vertical diffusion cell; format: in vitro ADME, human; settings: 0-8 hours
Description: Skin permeation was evaluated using a custom-fabricated Franz-type vertical diffusion cell (FDC). […] Fluid samples can be withdrawn for analysis from the receptor fluid. […] Membranes were defrosted, washed and subjected to visual inspection before use. Skin delivery and permeation studies were performed on six (6) replicates per Active formulation. A finite dose was applied to the surface of the skin under nonocclusive conditions. Dose volume was 10 μl (18 mg/cm^2). The dose was spread using a blunt glass rod. Receptor chambers were inserted in a dry block with an external magnetic stir bar drive that accommodated up to 15 Franz cells per block. […] Receptor well temperature was maintained at 32±0.5° C.; skin surface temperature was maintained at 30±1.0° C. Receptor wells were sampled at three time points, namely 8 hr, 24 hr and 48 hr; 300 μl was removed, loaded in a 96-well plate, and stored at 4-8° C. prior to analysis. Samples were analyzed within 5 days of collection. There was no further preparation of the samples prior to analysis. […] The membrane was […] […] Retention of the Actives in the epidermis and delivery of Actives to the dermis was measured by extracting the Active from each layer individually at twenty-four hours using dimethyl sulfoxide (DMSO). […] After the LC-MS or UV testing was complete, samples were analyzed using ChemStation software (Agilent).

Phase solubility studies = settings: active with HPBCD; calculated using Eq. (1)
[4] = Differential scanning calorimetry (decomposition); format: physicochemical; settings: DSC curve
Description: Calorimetric studies are conducted using a Modulated Differential Scanning calorimetry instrument (MDSC). Accurately weighed samples are sealed in Tzero aluminum pans. Empty sealed Tzero aluminum pans are used as a reference. […] Thermal analysis of pure active, excipients, formulations and physical mixtures are performed. Data analysis is performed using Universal Analysis software to measure melting point enthalpy of melting.
Differential scanning calorimetry (DSC) is a thermoanalytical technique useful in detecting phase transitions in solid samples by measuring the amount of heat absorbed or released during such transitions.
DSC analysis was performed using a TA Trios DSC instrument. Samples tested were HPBCD, the Active, and the active-HPBCD inclusion complexes. Each weighed sample for analysis ranged from 2.00 mg to 4.00 mg.

C=C(C)[C@@H]1CCC(C)=C[C@H]1c1c(O)cc(CCCCC)cc1O [CBD, Cannabidiol]
Stability of Actives at 25° C. ([1]; Week 1): 0
Stability of Actives at 25° C. ([1]; Week 2): 0
Stability of Actives at 25° C. ([1]; Week 3): 0
solubility in water [2]: completely insoluble in water; also recorded: poor water solubility
delivered dose, transdermal [3]: no amount of CBD was detected as penetrating through the skin
association constant (Kc) for complex formation (Phase solubility studies): 0.42247 M⁻¹

CCOC(=O)c1ccc(N)cc1 [Benzocaine]
Stability of Actives at 5° C. ([1]; Week 1): 0
Stability of Actives at 5° C. ([1]; Week 2): 0
Stability of Actives at 5° C. ([1]; Week 3): 0
Stability of Actives at 5° C. ([1]; Week 4): 0
Stability of Actives at 5° C. ([1]; Week 5): 0
Stability of Actives at 5° C. ([1]; Week 6): 0
Stability of Actives at 5° C. ([1]; Week 7): 0
Stability of Actives at 5° C. ([1]; Week 8): 0
Stability of Actives at 5° C. ([1]; Week 9): 0
Stability of Actives at 5° C. ([1]; Week 10): 0
Stability of Actives at 5° C. ([1]; Week 11): 0
Stability of Actives at 25° C. ([1]; Week 1): 0
Stability of Actives at 25° C. ([1]; Week 2): 0
Stability of Actives at 25° C. ([1]; Week 3): 0
Stability of Actives at 25° C. ([1]; Week 4): 0
Stability of Actives at 25° C. ([1]; Week 5): 0
Stability of Actives at 25° C. ([1]; Week 6): 0
Stability of Actives at 25° C. ([1]; Week 7): 0
Stability of Actives at 25° C. ([1]; Week 8): 0
Stability of Actives at 25° C. ([1]; Week 9): 0
Stability of Actives at 25° C. ([1]; Week 10): 0
Stability of Actives at 25° C. ([1]; Week 11): 0
Stability of Actives at 40° C. ([1]; Week 1): 0
Stability of Actives at 40° C. ([1]; Week 2): 0
Stability of Actives at 40° C. ([1]; Week 3): 0
Stability of Actives at 40° C. ([1]; Week 4): 0
Stability of Actives at 40° C. ([1]; Week 5): 0
Stability of Actives at 40° C. ([1]; Week 6): 0
Stability of Actives at 40° C. ([1]; Week 7): 0
Stability of Actives at 40° C. ([1]; Week 8): 0
Stability of Actives at 40° C. ([1]; Week 9): 0
Stability of Actives at 40° C. ([1]; Week 10): 0
Stability of Actives at 40° C. ([1]; Week 11): 0
decomposition (DSC) [4]: 230 °C
association constant (Kc) for complex formation (Phase solubility studies): 1.031 M⁻¹
